Reference: US20250320203A1, “4-(3H-PYRAZOLO[4,3-F]QUINOLIN-7-YL)-N-(2-(DIMETHYLAMINO)ETHYL)BENZAMIDE- OR HYDROXAMIC ACID COMPOUNDS, COMPOSITIONS, AND METHODS OF USE” (Purdue Research Foundation, priority 2022, published 2025)

Tests used:
phosphorylated FLT3 = test: Western blot, FLT3 target engagement in Molm-14 cells; format: cell-based, human; conditions: Molm-14 cells treated for 2 hours
Description: Acute myeloid leukemia cells (Molm-14) were incubated with various concentrations of compound as specified. Cells were collected and lysed, and protein concentrations were quantified relative to BSA standards. After protein denaturation, proteins were separated via SDS-PAGE electrophoresis and transferred to NC membranes. After blocking, overnight incubation with specific primary antibodies, and room temperature incubation for 2 hours with peroxidase-conjugated secondary antibodies, peroxidase activity was detected with SuperSignal West Pico reagents (Thermo Scientific) using a CCD camera LAS-4000 (Fujifilm). Bands were normalized using housekeeping gene, Actin. Values reported represent the means of triplicates and error bars represent SD. All specific antibodies were purchased from Cell Signaling.
Additionally, FLT3 target engagement in Molm-14 cells was evaluated to confirm the FLT3 inhibition seen in the preliminary kinase screen of Example 4 (Table 1). Cells were treated for 2 hours, harvested, and subsequently analyzed.

haspin = molecular target: T1, haspin (Homo sapiens, UniProt Q8TF76); test: Haspin binding Kd (Eurofins); design: purchased Eurofins (contract research service)
T1 sequence (Q8TF76 1-798): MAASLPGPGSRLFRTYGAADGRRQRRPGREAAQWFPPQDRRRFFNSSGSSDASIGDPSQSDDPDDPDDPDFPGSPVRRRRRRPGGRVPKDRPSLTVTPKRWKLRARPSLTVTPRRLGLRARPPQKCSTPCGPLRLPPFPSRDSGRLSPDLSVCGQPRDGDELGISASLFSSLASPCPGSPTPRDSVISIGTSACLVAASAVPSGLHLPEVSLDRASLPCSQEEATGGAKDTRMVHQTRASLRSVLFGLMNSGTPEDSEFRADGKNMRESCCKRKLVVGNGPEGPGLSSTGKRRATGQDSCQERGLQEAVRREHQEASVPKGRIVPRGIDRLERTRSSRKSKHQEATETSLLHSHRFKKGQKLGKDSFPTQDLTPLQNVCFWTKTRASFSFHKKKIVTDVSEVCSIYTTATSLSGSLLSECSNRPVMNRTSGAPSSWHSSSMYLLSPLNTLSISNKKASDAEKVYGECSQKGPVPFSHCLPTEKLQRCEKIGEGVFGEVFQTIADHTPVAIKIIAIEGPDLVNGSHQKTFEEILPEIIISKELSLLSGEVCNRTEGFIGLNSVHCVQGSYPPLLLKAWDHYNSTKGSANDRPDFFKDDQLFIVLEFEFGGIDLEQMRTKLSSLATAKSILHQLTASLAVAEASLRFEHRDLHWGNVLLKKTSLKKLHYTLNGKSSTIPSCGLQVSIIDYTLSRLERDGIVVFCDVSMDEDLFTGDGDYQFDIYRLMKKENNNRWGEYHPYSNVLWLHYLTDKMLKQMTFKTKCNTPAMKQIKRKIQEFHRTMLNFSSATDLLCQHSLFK

FLT3-ITD = molecular target: T2, FLT3-ITD (Homo sapiens, UniProt P36888); test: FLT3-ITD enzyme inhibition, 10-dose IC50 (Reaction Biology); format: biochemical; conditions: 10 μM ATP
T2 sequence (P36888 1-993): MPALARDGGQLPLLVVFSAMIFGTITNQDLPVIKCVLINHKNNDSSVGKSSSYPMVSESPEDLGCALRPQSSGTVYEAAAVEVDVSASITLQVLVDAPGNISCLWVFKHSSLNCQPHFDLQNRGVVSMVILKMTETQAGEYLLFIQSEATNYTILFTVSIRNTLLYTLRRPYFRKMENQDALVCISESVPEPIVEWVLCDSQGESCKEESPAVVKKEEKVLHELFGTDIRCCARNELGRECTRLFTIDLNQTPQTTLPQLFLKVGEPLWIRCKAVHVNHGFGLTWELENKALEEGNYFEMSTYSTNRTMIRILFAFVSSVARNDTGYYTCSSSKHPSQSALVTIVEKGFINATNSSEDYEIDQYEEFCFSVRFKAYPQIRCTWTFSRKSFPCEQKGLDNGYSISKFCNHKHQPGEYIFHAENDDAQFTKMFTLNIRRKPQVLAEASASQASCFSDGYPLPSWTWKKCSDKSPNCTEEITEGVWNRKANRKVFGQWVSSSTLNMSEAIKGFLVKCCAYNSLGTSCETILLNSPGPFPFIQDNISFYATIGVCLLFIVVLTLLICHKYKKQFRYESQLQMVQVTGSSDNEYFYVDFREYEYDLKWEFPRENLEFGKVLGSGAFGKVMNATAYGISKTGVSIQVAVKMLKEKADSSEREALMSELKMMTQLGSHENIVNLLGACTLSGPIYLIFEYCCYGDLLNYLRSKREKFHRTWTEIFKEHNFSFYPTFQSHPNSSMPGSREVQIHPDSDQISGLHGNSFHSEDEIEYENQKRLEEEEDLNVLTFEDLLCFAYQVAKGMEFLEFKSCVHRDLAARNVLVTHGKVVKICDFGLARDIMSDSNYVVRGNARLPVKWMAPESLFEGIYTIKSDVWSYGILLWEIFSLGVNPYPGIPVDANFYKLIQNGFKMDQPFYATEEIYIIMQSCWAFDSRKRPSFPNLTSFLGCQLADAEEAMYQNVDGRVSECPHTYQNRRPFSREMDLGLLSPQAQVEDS

Molm 14-ITD-D835Y = test: Cell viability GI50, Molm 14-ITD-D835Y; format: cell-based; conditions: Homo sapiens; 72 hours
Description: More specifically, cells were cultured to confluence in RPMI medium supplemented with 10% fetal bovine serum and 1× Penicillin-Streptomycin (Gibco™). Cells were plated at 5,000 cells/well in 96 well plates. After 24-hour incubation at 37° C. in a 5% CO2 incubator, compounds diluted in the same media were added to the indicated final concentration and allowed to incubate at 37° C. in a 5% CO2 incubator for 72 hours. Viability was determined using CellTiter-Blue® Cell Viability Assay (Promega, Madison, WI) with absorbance readings at 570 nm performed on a Cytation™ 5 Cell Imaging Multi-Mode Reader (BioTek) 3 hours after addition. Appropriate vehicle and cell-free controls were included. GI50 readings were confirmed by two scientists on two separate days.
Scholl et al. (2020), supra. Accordingly, Compound HSK205 was evaluated against Molm-14 cell lines that harbor resistant mutations commonly found in the clinic, FLT3-ITD-D835Y and F691L (FIG. 15).

Cc1c[nH]c(CNC(=O)c2ccc(-c3nc4ccc5[nH]ncc5c4c4c3CCCC4)cc2)n1 [Compound HSK205]
phosphorylated FLT3 (phosphorylated FLT3): reduction of phosphorylated FLT3 | Kd (haspin): 0.55 nM | IC50 (FLT3-ITD): < 0.5 nM | GI50 (Molm 14-ITD-D835Y): 4.3 nM
